The values that follow come from article PMC5217330, “Impact of colistin plasma levels on the clinical outcome of patients with infections caused by extremely drug-resistant Pseudomonas aeruginosa” (BMC Infectious Diseases, 2017).

Data set [1] is described as follows: Colistin plasma concentration at steady state in patients treated with intravenous CMS (HPLC). It counts as in vivo, human. As for the experimental part:
CMS for injection was used and dosed in millions of IU throughout the study. The drug was administered intravenously in 100 mL of normal saline over 30 min in the commercially available colistimethate formulation for injection (GES GenéricosEspañoles®), with each vial containing 80 mg CMS (equivalent to 1 million IU of CMS and about 30 mg of colistin base activity). As the policy of our hospital, CMS is reserved for the treatment of infections due to bacteria that are resistant to carbapenems and other antipseudomonal antibiotics except colistin and, eventually, aminoglycosides. Dose selection was at the discretion of the responsible clinicians. CMS doses ranged from 1 to 3 million IU every 8 h (3–9 millions IU daily). The following dose adjustments were made according to the package insert’s recommendations in patients with impaired renal function: GFR ≥ 76 mL/min/1.73 m^2, 4–6 million IU daily in three doses; GFR 40 to 75 mL/min/1.73 m^2, 2–3 million IU daily in 2 doses; GFR 25–40 mL/min/1.73 m^2, 1.5–2 million IU daily divided into 1 or 2 doses; and GFR < 25 mL/min/1.73 m^2, 0.6–1 million IU daily every 36 h. No loading-dose was administered to any included patient.
Measurement of the plasma colistin concentration was performed at the fourth day of treatment, when was assumed that the colistin concentrations had reached the steady state. The colistin plasma trough concentrations (Cmin) were measured just before the administration of CMS. The maximum plasma concentrations (Cmax) were obtained 30 min after the end of the CMS infusion (1 h after the start of infusion). A specialized nurse performed extraction of blood. Samples were immediately placed in a portable refrigerator (4 °C) to be processed in a refrigerated centrifuge (4 °C) at the laboratory. Colistin concentrations in the plasma were determined using a validated high-performance liquid chromatography (HPLC) method as reportedby Li et al., with minor modifications as described previously by our group.
Following Couet et al., Cmin was chosen because it is more convenient from a practical view point and because due to the colistin pharmacokinetic behavior, there can be CMS hydrolysis to colistinafter sample extraction resulting in an overestimation of the real in vivo colistin plasma concentration. This phenomenon can be minimized when CMS plasma concentrations are lower what occurs at the end of the dosing interval (when the Cmin is measured). Throughout the present paper, we have used the term “average colistin concentration at steady state (Css)” to refer to the Cmin.

The subject of data set [2] is colistin-susceptible XDR P. aeruginosa. Nature of the data set: Clinical outcome (clinical cure, 30-day mortality) of patients with XDR P. aeruginosa infections treated with intravenous CMS. The data set is classed as in vivo, human. As for the experimental part: A prospective observational cohort study was conducted between January 2009 and January 2013 at a 450-bed teaching hospital in Barcelona, Spain. All patients who had microbiologically documented infections due to colistin-susceptible XDR-P.aeruginosa and were administered CMS for at least 72 h, were included in the study. Only microbiologically documented and clinically defined infections caused by colistin-susceptible XDR P. aeruginosa treated with colistin were considered. Acute bronchitis and tracheitis were excluded from the analysis due to the difficulty in differentiating true infection from colonization in patients with chronic obstructive pulmonary disease (COPD).
The primary end point was clinical cure, and the secondary 30-day all-cause mortality.
Clinical cure and failure were defined as resolution and persistence/worsening, respectively, of symptoms and signs of infection.
Thirty-day mortality was defined as death occurring within 30 days of beginning CMS treatment.
Clinical cure was defined as having resolved clinical signs and symptoms and/or no need for additional antibiotic therapy. Clinical failure was defined as an inadequate response to antibiotic therapy, with worsening, new/recurrent signs and symptoms or death.

For data set [3] the following is noted: in vivo.
Description: The serum creatinine level and estimated glomerular filtration rate (GFR) were recorded at baseline, at the moment of colistin plasma extraction (day 4), on day 7 and at the EOT. […] The RIFLE criteria (Table 1) estimated with exclusion of the urinary output criterion, were used for the detection and stratification of acute kidney injury (AKI) [22]. AKI during CMS treatment was defined as a 1.5-fold or more increase in serum creatinine and/or a decrease in the GFR of 25% or more. These criteria needed to be fulfilled for at least 2 consecutive measurements 24 h apart during CMS treatment.

Like-named read-outs stand apart in the source and are kept apart here. Where a SMILES comes first, the peptide text is derived from it.

As to `CC[C@H](C)CCCCC(=O)N[C@@H](CCN)C(=O)N[C@H](C(=O)N[C@@H](CCN)C(=O)N[C@H]1CCNC(=O)[C@H]([C@@H](C)O)NC(=O)[C@H](CCN)NC(=O)[C@H](CCN)NC(=O)[C@H](CC(C)C)NC(=O)[C@@H](CC(C)C)NC(=O)[C@H](CCN)NC1=O)[C@@H](C)O` [colistin] (HELM PEPTIDE1{[CC[C@H](C)CCCCC(=O)[*:2]].[Dab].T.[Dab].[Dab].[Dab].[dL].L.[Dab].[Dab].T}$PEPTIDE1,PEPTIDE1,5:R3-11:R2$$$V2.0), the Css/MIC in data set [1] (all included patients n = 91, mean ± SD, SD) came to 3.43 ± 2.91; in data set [1] (patients who died n = 28, mean ± SD, P = 0.048 vs survived, SD), 4.2 ± 2.7; in data set [1] (patients who survived n = 63, mean ± SD, SD), 3.1 ± 3; in data set [1] (patients with clinical cure n = 72, mean ± SD, SD), 3.13 ± 2.9; in data set [1] (patients with clinical failure n = 19, mean ± SD, P = 0.03 vs cure, SD) it was 4.61 ± 2.86. For the same molecule, the Cmax in data set [1] (human, iv, day 4, 30 min after end of 30-min CMS infusion, plasma, HPLC, mean ± SD, SD, read-out: Cmax (maximum plasma concentration)) was 1660 ± 1400 ng/mL. The level at 96 h was 1710 ± 1420 ng/mL in data set [1] (human, plasma, iv, day 4, just before administration of CMS, plasma, HPLC, mean ± SD, SD, read-out: Cmin (colistin plasma trough concentration)); 1490 ng/mL in data set [1] (human, plasma, iv, patients who achieved clinical cure, mean (SD), abstract, SD, read-out: Css); 2420 ng/mL in data set [1] (human, plasma, iv, patients who did not achieve clinical cure, mean (SD), p = 0.01, abstract, SD, read-out: Css); 2100 ng/mL in data set [1] (human, plasma, iv, patients who died n = 28, day 4 trough, plasma, HPLC, mean ± SD, P = 0.011 vs survived, read-out: Css); 1400 ng/mL in data set [1] (human, plasma, iv, patients who survived n = 63, day 4 trough, plasma, HPLC, mean ± SD, read-out: Css). The “Css > 1.25 (mg/L), patients” value in data set [1] (patients who survived n = 63) was 28 (44.4) n (%).

With colistimethate sodium [CMS], the infection-related mortality rate in data set [2] (13 patients died due to P. aeruginosa infection, n = 91) was found to be 14.3%. For the same molecule, in data set [2] (28 of 91 patients, i.v. CMS), the “30-day all-cause mortality rate” value came to 30.9%. For the same molecule, in data set [3], the “AKI RIFLE F at the EOT, patients” value was found to be 11%; the “AKI RIFLE F on day 7 of treatment, patients” value was determined as 2.2%; the “AKI RIFLE I at the EOT, patients” value worked out at 29.7%; the “AKI RIFLE I on day 7 of treatment, patients” value is given as 9.9%. Also, in data set [3], the “AKI RIFLE R at the EOT, patients” value amounted to 13.2%; the “AKI RIFLE R on day 7 of treatment, patients” value is recorded as 20.9%; the “CMS dose modified because of AKI, patients” value stood at 17.5%; the “GFR returned to baseline at the end of follow-up, patients” value is given as 35.1%. In addition, in data set [3], the “Impairment of renal function during CMS treatment at the EOT, patients” value was 53.8%; the “Impairment of renal function during CMS treatment on day 7, patients” value is 33%; the “Patients with AKI at day 7, F (Failure)” value was 2 (2.2) n (%); the “Patients with AKI at day 7, I (Injury)” value is on record as 9 (9.9) n (%). Moreover, in data set [3], the “Patients with AKI at day 7, R (Risk)” value was 19 (20.9) n (%); the “Patients with AKI at the EOT, F (Failure)” value is 10 (11) n (%); the “Patients with AKI at the EOT, I (Injury)” value is 27 (27.7) n (%); the “Patients with AKI at the EOT, R (Risk)” value was 12 (13.2) n (%). In data set [3], the “persisted with some grade of impairment of renal function at the end of follow-up, patients” value is on record as 2.1%.
